Test results reported in patent US20100317583A1, “TREATMENT OF MELANOMA WITH ALPHA THYMOSIN PEPTIDES IN COMBINATION WITH AN ANTINEOPLASTIC HEAT SHOCK APOPTOSIS ACTIVATOR (HSAA)” (SciClone Pharmaceuticals, Inc., priority 2007, published 2010).
Several values for one entry are separate records, joined by “and”; a condition that tells them apart may be missing. Equal entries are not always repeated. No end group written: not given here.

Test system: murine B16 melanoma cells
Experiment: Anti-tumor efficacy (tumor size, tumor volume, tumor weight) in C57BL/6 mice bearing subcutaneous B16 melanoma
Assay type: in vivo
Conditions: for Tumor weights / PI (TW), percent inhibition of tumor weight vs vehicle: Day 17
Description: In this study, the anti-tumor effect of the combined treatment of thymosin alpha-1 (TA-1), Paclitaxel (Pac) and Elesclomol (Ele) was evaluated in C57BL/6 mice bearing B16 melanoma cells. The toxic effects of the dosing regimens were also monitored. A total of 60 mice were implanted subcutaneously with murine B16 cells, followed by treatment with TA-1 or Pac/Ele alone or in combination for 14 consecutive days. TA-1 was given daily via s.c., while Pac and Ele were co-i.v. administered on Day 1, 7 and 13. In total, 6 groups were used: Group 1: vehicle; Group 2: TA-1 6 mg/kg; Group 3: Pac 10 mg/kg+Ele 10 mg/kg; Group 4: Pac 30 mg/kg+Ele 30 mg/kg; Group 5: TA-1 6 mg/kg+Pac 10 mg/kg+Ele 10 mg/kg; and Group 6: TA-1 6 mg/kg+Pac 30 mg/kg+Ele 30 mg/kg. Tumor volume and body weight were measured every three days, and tumor weights were measured on Day 17 at the end of the study.
Murine B16 melanoma cells were thawed from the stock of Cell Culture Center, Institute of Basic Medical Sciences, Peking Union Medical College and Chinese Academy of Medical Sciences (PUMC & CAMS, Beijing, P. R. China). The tumor cells were adapted in C57BL/6 mice before use in the experiment (Refer to Section 4.3.1 for details on cell adaptation).
Using aseptic tissue culture procedures, one vial of B16 melanoma cells was removed from the liquid nitrogen stock, and placed into a 37° C. water bath. Gentle swirling was conducted until the content of the vial was thawed. Once thawed, the cells were immediately centrifuged with a TD5A-WS centrifuge at 1000 rpm, 20-25° C., 5 min. After centrifugation, the cells were suspended in […] normal saline (NS) and subcutaneously injected into 10 mice (0.1 mL/mouse, about 1×10^6 cells). After 7-10 days, when the tumor diameter was approximately 1 cm, the animals were euthanized with CO2 overdose and the tumors excised. The procedure was repeated with 20 mice to generate a sufficient number of B16 melanoma cells with adequate transplantability.
On the day of tumor implantation, approximately 1×10^6 cells in 0.1 mL were subcutaneously injected on the right axillary area of each mouse. The day of tumor implantation was defined as Day 0.
On Day 1, the animals were randomly assigned into different weight-matched groups, and dosing was started using the regimen according to Table 2. Briefly, TA-1 was administered once daily via subcutaneous (s.c.) injection for 14 consecutive days at a site different from that of tumor cell implantation, while Pac and Ele was administered on Days 1, 7, and 13 via an intravenous (i.v.) injection.
From Day 1 to Day 15, mortality and moribundity were checked twice daily, the body weights were recorded once every 3 days, and tumors were measured using a caliper once every 3 days. At the end of the study (Day 17), the animals were euthanized by CO2 asphyxiation, and the tumors were excised and weighed.
Based on the tumor size, the tumor volume (TV) was calculated with the formula: [TV=(Length×Width×Width)/2]. And the percent inhibition (PI) of TV (PITV) was calculated according to the equation below:
PITV(%)=(TV vehicle−TVdrug treated)/TV vehicle×100
The anti-tumor effect of the test article was further evaluated with tumor weight (TW) measured on day of necropsy (Day 17). The PI of TW was calculated using the equation below:
PITW(%)=100×(TW vehicle−TW drug treated)/TW vehicle
The calculations of PITV and PITW were performed using an Excel spreadsheet and reviewed by the Study Director and Study Monitor.
Inter-group comparison was performed in terms of tumor volume, tumor weight and body weight, using a student's t test. P values of less than 0.05 were considered to be statistically significant.

[1] = Day 3, individual animals F1-F5, M1-M5, low-dose arms: TA-1 6 mg/kg, Pac 10 + Ele 10 mg/kg
[2] = Day 3, low-dose arms: TA-1 6 mg/kg s.c. daily, Pac 10 + Ele 10 mg/kg co-i.v. Days 1, 7, 13
[3] = Day 6, individual animals F1-F5, M1-M5, low-dose arms: TA-1 6 mg/kg, Pac 10 + Ele 10 mg/kg
[4] = Day 6, low-dose arms: TA-1 6 mg/kg s.c. daily, Pac 10 + Ele 10 mg/kg co-i.v. Days 1, 7, 13
[5] = Day 9, individual animals F1-F5, M1-M5, low-dose arms: TA-1 6 mg/kg, Pac 10 + Ele 10 mg/kg
[6] = Day 9, low-dose arms: TA-1 6 mg/kg s.c. daily, Pac 10 + Ele 10 mg/kg co-i.v. Days 1, 7, 13
[7] = Day 12, low-dose arms: TA-1 6 mg/kg s.c. daily, Pac 10 + Ele 10 mg/kg co-i.v. Days 1, 7, 13
[8] = Day 15, low-dose arms: TA-1 6 mg/kg s.c. daily, Pac 10 + Ele 10 mg/kg co-i.v. Days 1, 7, 13

thymosin alpha 1 (SDAAVDTSSEITTKDLKEKKEVVEEAEN; ends and bridges not checked; UniProt P06454 2-29, looked up) [TA-1, 28 amino acid peptide with a molecular weight of 3108; immunomodulator]
Tumor measurements, L (length) [1]: 0.1 cm (2×) and 0.2 cm (2×)
Tumor measurements, W (width) [1]: 0.1 cm (2×) and 0.2 cm (2×)
Tumor volumes (Day 3, individual animals F1-F5, M1-M5, low-dose arms: TA-1 6 mg/kg, Pac 10 + Ele 10 mg/kg, female mice): 0 cm^3 (4×) and 0.0005 cm^3
Tumor volumes (Day 3, individual animals F1-F5, M1-M5, low-dose arms: TA-1 6 mg/kg, Pac 10 + Ele 10 mg/kg, male mice): 0 cm^3 (2×) and 0.004 cm^3 (2×) and 0.0005 cm^3
PI (TV), percent inhibition of tumor volume vs vehicle [2]: −50.00%
Tumor Volume (Mean ± SD) [2]: 0.0009 ± 0.0016 cm^3
Tumor measurements, L (length) [3]: 0.3 cm and 0.2 cm (2×) and 0.1 cm
Tumor measurements, W (width) [3]: 0.3 cm and 0.2 cm (2×) and 0.1 cm
Tumor volumes (Day 6, individual animals F1-F5, M1-M5, low-dose arms: TA-1 6 mg/kg, Pac 10 + Ele 10 mg/kg, female mice): 0 cm^3 (4×) and 0.0135 cm^3
Tumor volumes (Day 6, individual animals F1-F5, M1-M5, low-dose arms: TA-1 6 mg/kg, Pac 10 + Ele 10 mg/kg, male mice): 0 cm^3 (2×) and 0.004 cm^3 (2×) and 0.0005 cm^3
PI (TV), percent inhibition of tumor volume vs vehicle [4]: 58.49%
Tumor Volume (Mean ± SD) [4]: 0.0022 ± 0.0043 cm^3
Tumor volumes (Day 9, animal F1): 0.0005 cm^3
Tumor volumes (Day 9, animal F2): 0 cm^3
Tumor volumes (Day 9, animal F3): 0 cm^3
Tumor volumes (Day 9, animal F4): 0 cm^3
Tumor volumes (Day 9, animal F5): 0.0135 cm^3
Tumor volumes (Day 9, animal M1): 0.004 cm^3
Tumor volumes (Day 9, animal M2): 0.004 cm^3
Tumor volumes (Day 9, animal M3): 0.004 cm^3
Tumor volumes (Day 9, animal M4): 0 cm^3
Tumor volumes (Day 9, animal M5): 0 cm^3
Tumor measurements, L (length) [5]: 0.3 cm and 0.2 cm (3×) and 0.1 cm
Tumor measurements, W (width) [5]: 0.3 cm and 0.2 cm (3×) and 0.1 cm
PI (TV), percent inhibition of tumor volume vs vehicle [6]: 88.26%
Tumor Volume (Mean ± SD) [6]: 0.0026 ± 0.0043 cm^3
Tumor measurements L (Day 12, animal F1): 0.1 cm
Tumor measurements W (Day 12, animal F1): 0.1 cm
Tumor volumes (Day 12, animal F1): 0.0005 cm^3
Tumor measurements L (Day 12, animal F2): 0.2 cm
Tumor measurements W (Day 12, animal F2): 0.2 cm
Tumor volumes (Day 12, animal F2): 0.004 cm^3
Tumor measurements L (Day 12, animal F3): 0.2 cm
Tumor measurements W (Day 12, animal F3): 0.2 cm
Tumor volumes (Day 12, animal F3): 0.004 cm^3
Tumor measurements L (Day 12, animal F4): 0.1 cm
Tumor measurements W (Day 12, animal F4): 0.1 cm
Tumor volumes (Day 12, animal F4): 0.0005 cm^3
Tumor measurements L (Day 12, animal F5): 0.3 cm
Tumor measurements W (Day 12, animal F5): 0.3 cm
Tumor volumes (Day 12, animal F5): 0.0135 cm^3
Tumor measurements L (Day 12, animal M1): 0.2 cm
Tumor measurements W (Day 12, animal M1): 0.2 cm
Tumor volumes (Day 12, animal M1): 0.004 cm^3
Tumor measurements L (Day 12, animal M2): 0.2 cm
Tumor measurements W (Day 12, animal M2): 0.2 cm
Tumor volumes (Day 12, animal M2): 0.004 cm^3
Tumor measurements L (Day 12, animal M3): 0.2 cm
Tumor measurements W (Day 12, animal M3): 0.2 cm
Tumor volumes (Day 12, animal M3): 0.004 cm^3
Tumor measurements L (Day 12, animal M4): 0.2 cm
Tumor measurements W (Day 12, animal M4): 0.2 cm
Tumor volumes (Day 12, animal M4): 0.004 cm^3
Tumor measurements L (Day 12, animal M5): 0.1 cm
Tumor measurements W (Day 12, animal M5): 0.1 cm
Tumor volumes (Day 12, animal M5): 0.0005 cm^3
PI (TV), percent inhibition of tumor volume vs vehicle [7]: 96.28%
Tumor Volume (Mean ± SD) [7]: 0.0039 ± 0.0038 cm^3
Tumor measurements L (Day 15, animal F1): 0.3 cm
Tumor measurements W (Day 15, animal F1): 0.3 cm
Tumor volumes (Day 15, animal F1): 0.0135 cm^3
Tumor measurements L (Day 15, animal F2): 0.3 cm
Tumor measurements W (Day 15, animal F2): 0.3 cm
Tumor volumes (Day 15, animal F2): 0.0135 cm^3
Tumor measurements L (Day 15, animal F3): 0.5 cm
Tumor measurements W (Day 15, animal F3): 0.5 cm
Tumor volumes (Day 15, animal F3): 0.0625 cm^3
Tumor measurements L (Day 15, animal F4): 0.3 cm
Tumor measurements W (Day 15, animal F4): 0.3 cm
Tumor volumes (Day 15, animal F4): 0.0135 cm^3
Tumor measurements L (Day 15, animal F5): 0.6 cm
Tumor measurements W (Day 15, animal F5): 0.6 cm
Tumor volumes (Day 15, animal F5): 0.108 cm^3
Tumor measurements L (Day 15, animal M1): 0.5 cm
Tumor measurements W (Day 15, animal M1): 0.5 cm
Tumor volumes (Day 15, animal M1): 0.0625 cm^3
Tumor measurements L (Day 15, animal M2): 0.4 cm
Tumor measurements W (Day 15, animal M2): 0.4 cm
Tumor volumes (Day 15, animal M2): 0.032 cm^3
Tumor measurements L (Day 15, animal M3): 0.6 cm
Tumor measurements W (Day 15, animal M3): 0.6 cm
Tumor volumes (Day 15, animal M3): 0.108 cm^3
Tumor measurements L (Day 15, animal M4): 0.5 cm
Tumor measurements W (Day 15, animal M4): 0.5 cm
Tumor volumes (Day 15, animal M4): 0.0625 cm^3
Tumor measurements L (Day 15, animal M5): 0.5 cm
Tumor measurements W (Day 15, animal M5): 0.5 cm
Tumor volumes (Day 15, animal M5): 0.0625 cm^3
PI (TV), percent inhibition of tumor volume vs vehicle [8]: 85.60%
Tumor Volume (Mean ± SD) [8]: 0.0539 ± 0.0358 cm^3
Tumor Weight (Mean ± SD) (Day 17 (necropsy), low-dose arms: TA-1 6 mg/kg s.c. daily, Pac 10 + Ele 10 mg/kg co-i.v. Days 1, 7, 13): 0.88 ± 0.34 g
Tumor weights (animal F1): 0.64 g
Tumor weights (animal F2): 0.5 g
Tumor weights (animal F3): 1.2 g
Tumor weights (animal F4): 0.62 g
Tumor weights (animal F5): 1.45 g
Tumor weights (animal M1): 0.69 g
Tumor weights (animal M2): 0.56 g
Tumor weights (animal M3): 1.36 g
Tumor weights (animal M4): 0.92 g
Tumor weights (animal M5): 0.89 g
PI (TW), percent inhibition of tumor weight vs vehicle (low-dose arms: TA-1 6 mg/kg s.c. daily, Pac 10 + Ele 10 mg/kg co-i.v. Days 1, 7, 13): 55.67%
PI (TW), percent inhibition of tumor weight vs vehicle (low-dose arms: TA-1 6 mg/kg s.c. daily, Pac 10 + Ele 10 mg/kg co-i.v. Days 1, 7, 13, listed as Group 2): 55.67%
mean tumor volume reduced in comparison to that of the vehicle control group (throughout the course of the study, TA-1 6 mg/kg s.c. daily): more than 50%
